The source of these data is patent US20150283147A1, “TREATING POLYCYSTIC KIDNEY DISEASE WITH HSP90 INHIBITORY COMPOUNDS” (SYNTA PHARMACEUTICALS CORP., priority 2012, published 2015).

SMILES strings stand for the structures. Entries after “also recorded” stand apart in the source; their conditions may differ.

The test system of one test is Her2. As to the kind of experiment: Degradation of Her2 in BT-474 cells (Method 1, Western blot). Format: cell-based, Human. The note with it: 0.5 μM, overnight. The method, then:
Human high-Her2 breast carcinoma BT474 (HTB-20), SK-BR-3 (HTB-30) and MCF-7 breast carcinoma (HTB-22) from American Type Culture Collection, VA, USA were grown in Dulbecco's modified Eagle's medium with 4 mM L-glutamine and antibiotics (100 IU/ml penicillin and 100 ug/ml streptomycine;GibcoBRL). To obtain exponential cell growth, cells were trypsinized, counted and seeded at a cell density of 0.5×10^6 cells/ml regularly, every 3 days. All experiments were performed on day 1 after cell passage.
BT-474 cells are treated with 0.5 μM, 2 μM, or 5 μM of 17AAG (a positive control) or 0.5 μM, 2 μM, or 5 μM of a compound of the invention overnight in DMEM medium. After treatment, each cytoplasmic sample is prepared from 1×10^6 cells by incubation of cell lysis buffer (#9803, cell Signaling Technology) on ice for 10 minutes. The resulting supernatant used as the cytosol fractions is dissolved with sample buffer for SDS-PAGE and run on a SDS-PAGE gel, blotted onto a nitrocellulose membrane by using semi-dry transfer. Non-specific binding to nitrocellulose is blocked with 5% skim milk in TBS with 0.5% Tween at room temperature for 1 hour, then probed with anti-Her2/ErB2 mAb (rabbit IgG, #2242, Cell Signaling) and anti-Tubulin (T9026, Sigma) as housekeeping control protein. […]

A further test deals with FLT3 with Hsp90. The note with it: cited from earlier work.
Another test concerns Kasumi-1 cells. As to conditions: Kasumi-1 acute myeloid leukemia cell line with c-Kit mutation; cited from earlier work.
For test [1], the system named is leukemia cells that express either wild type FLT3 or FLT3-ITD mutations. As to conditions: cited from earlier work.
A further test has as its system Pkd1^−/− mice. The experiment in a line: Cyst formation and kidney growth in conditional Pkd1-/- mice (MRI, kidney weight, cystic index, BUN). The test is classed as in vivo. The procedure: All experiments involving mice were approved by the Institutional Animal Care and Use Committee of Fox Chase Cancer Center. Conditional Pkd1^−/− mice using the Cre-flox regulatory system for targeted inactivation of the Pkd1 gene in vivo were kindly provided by Gregory Germino (National Institute of Diabetes and Digestive and Kidney Diseases). Pkd1fl/fl;Cre/Esr1+ (referred to as Pkd1^−/−) and control mice (Pkd1fl/fl;Cre/Esr1−; referred to as Control) mice were injected intraperitoneally with tamoxifen (250 mg/kg body weight) on postnatal day P37/P38 (+/−1 day) to induce Pkd1 deletion in the test group.
Compound 111 was formulated in 5% dextrose titrated to pH 4, and administered by tail vein injection in anesthetized mice under sterile conditions using a volume of 10 μl/g body weight. Vehicle treated mice were injected with 5% dextrose only. To investigate the activity of compound 111 on early kidney disease, mice were treated with compound 111 for 5 months, starting 2-3 days after Pkd1 deletion. Treatment began with a weekly schedule up to 4 months of age, including one week off in the 3rd month of age, followed by a bi-weekly schedule from 4 to 6 month of age. 24 hours after the 16th injection, blood samples were collected and the mice were sacrificed to collect organs for histopathological and biochemical analysis. To investigate the activity of compound 111 on Late kidney disease, mice were dosed weekly with compound 111 for 10 weeks starting at 4 months of age. 24 hours after the 11th dose (10 weeks of treatment), blood samples were collected and the mice were sacrificed to collect organs for histopathological and biochemical analysis.
To assess the utility of HSP90 inhibition in ADPKD, Pkd1fl/fl;Cre/Esr1+ (referred to as Pkd1^−/−) and control Pkd1fl/fl;Cre/Esr1− (referred to as control) mice were injected with tamoxifen at 5-6 weeks of age to inactivate the Pkd1 gene. HSP90 was inhibited using compound, a resorcinolic triazole that competitively binds the N-terminal ATP pocket of HSP90. In one cohort of mice (designated Early), mice were dosed from 6 weeks-4 months of age, to assess drug effects on disease initiation (FIG. 1). […] (FIGS. 2-3)
In a second cohort (designated Late), mice were dosed from 4-6 months of age, to assess drug effects on mice with Late cysts, in this case using doses of 50 mg/kg and 100 mg/kg to explore dose range (FIGS. 4-6).
Mice were imaged in a vertical bore MR system at a field strength of 7 Tesla, using a Bruker DRX300 spectrometer, Paravision 3.0.2 software, and a single tuned ^1H cylindrical radiofrequency coil. […]
Using NIH ImageJ, an open source image analysis program, kidney and cyst volume were quantified. […]

For `C=CCNC1=C2C[C@@H](C)C[C@H](OC)[C@H](O)[C@@H](C)/C=C(\C)[C@H](OC(N)=O)[C@@H](OC)/C=C\C=C(/C)C(=O)NC(=CC1=O)C2=O` [Compound 17AAG], the “degradation of Her2” value in the test with Her2 was “partial degradation”. In addition, in the test with FLT3 with Hsp90, the “association of FLT3 with Hsp90” value is “disrupt the association of FLT3 with Hsp90”. The apoptosis entry with Kasumi-1 cells is “induce apoptosis”. Also, the “growth of leukemia cells” value in test [1] is “inhibited”.
As for `CC(C)c1cc(-c2nnc(C(=O)NCCN3CCOCC3)n2-c2ccc(CN3CCOCC3)cc2)c(O)cc1O` [Compound 111, 5-(2,4-dihydroxy-5-isopropylphenyl)-N-(2-morpholinoethyl)-4-(4-(morpholinomethyl)phenyl)-4H-1,2,4-triazole-3-carboxamide], in the test on Pkd1^−/− mice (Early cohort, 75 mg/kg, blood drawn at euthanasia), the “blood urea nitrogen (BUN)” value is “trend towards reduction”. Moreover, the “formation of renal cysts and kidney growth” value in the test on Pkd1^−/− mice (Early cohort, Pkd1−/− mice, 75 mg/kg, tail vein injection, 5 months) is “very significantly reduced; also recorded: inhibited cyst formation, kidney growth”. Moreover, in the test on Pkd1^−/− mice (Late cohort, 50 mg/kg and 100 mg/kg, 1×/week for 10 weeks, tail vein injection), the “reduction of cyst volume and kidney growth” value was “significant, dose-dependent effect; also recorded: reduced cystic burden”. Moreover, in the test on Pkd1^−/− mice (Late cohort, 100 mg/kg, 10 weeks), the BUN scores result is listed as “reduced BUN scores to normal levels”.
